In patent US20250361217A1, “FATTY ACID COMPOUNDS” (University of Pittsburgh - Of the Commonwealth System of …, priority 2022, published 2025):

Tests used:
[1] = test system: HFD model in C57BL/6J mice; assay: Plasma insulin, metabolic hormones, AST/ALT, TNF-α in HFD mice; type: in vivo
Source text: Male C57BL/6J mice were purchased from Jackson Laboratory (Bar Harbor, ME, USA). Mice were acclimated for a week before being randomized to receive either a low-fat diet (LFD) or a high-fat diet (HFD) purchased from Research Diets (New Brunswick, NJ, USA). Obesity was induced by the HFD (D12492, with 60% of the adjusted calories derived from fat) for 16 weeks beginning at age of 8 weeks. Age-matched controls were maintained on a LFD (D12450J, matching the sucrose level of D12492). While maintaining the diet, mice under HFD were divided into 4 groups (n=8 per group) and were treated every 2 days by oral gavage for 7 weeks with 100 μl of 11D3 (50 mg/kg), 11U3 (50 mg/kg), or 11U3-2M (50 mg/kg) formulated in a solution of 2:1 of polyethylene glycol (Fisher Scientific, PEG400 #p167-1) and saline, containing 1.5% of octanoic acid (TCI, #00027). Control groups received 100 μl of PEG400/saline/octanoic acid as the vehicle (Veh). LFD mice were divided into 2 groups (n=8 per group) and treated with veh or 11D3 (50 mg/kg) to detect any effect of natural FuFA in LFD. Mice were grouped to start at the same weight mean before starting the treatment. During and before gavage treatment, mice were fed ad libitum and given free access to water. Food intake, water consumption, and mouse weight were monitored every week. At 20 weeks (4 weeks of treatment), a glucose tolerance test (GTT) was performed on all cohorts. After 2 weeks of recovery (22 weeks), a whole-body composition was performed using EchoMRI™-100H. At the end of the 23 weeks study, mice were euthanized with isoflurane followed by laparotomy. The blood was collected, and mice were perfused using 0.9% NaCl. Organs were harvested and snap-frozen in liquid nitrogen gas and stored at −80° C. for further analysis. The Cellerusher (Cell Crusher, Schull, Ireland) tissue pulverizer was used to reduce frozen tissues to a fine, easily recoverable powder using dry ice. For immunohistochemistry, the same liver lobe for every mouse was fixed in Formalin 10% (Fisher Chemical, #SF98-4) for 48h, followed by 75% ethanol baths before paraffin embedding.
After collection, red blood cells and plasma were separated by centrifugation for 5 min at 7500 g at 4° C., aliquoted, and stored at −80° C. Insulin levels were measured by ELISA (Invitrogen, #EMINS) using 50 μl of plasma as per the manufacturer's instructions. Aspartate aminotransferase (AST) and alanine aminotransferase (ALT) levels were both measured using 5 μl of plasma with ELISA (Abcam, #ab263882 and #ab282882, respectively). Metabolic hormones were determined using Luminex xMAP technology (Milliplex mouse metabolic hormone expanded panel #MMHE-44K, Millipore, Burlington, MA, USA). The multiplex metabolic hormones plate was measured as per the manufacturer's instructions.

[2] = test system: liver gene expression; assay: RT-qPCR of liver genes; type: in vivo, mice; settings: liver RT-qPCR vs HFD+veh
Protocol: Total RNA was extracted using 50 mg of frozen liver powder. The powder was homogenized in 1 mL of TRIzol solution (Invitrogen, #15-596-026) and 200 μl of chloroform, shaken vigorously for 15 seconds, and incubate at RT for 2-3 min. Lysates were centrifuged at 12000 g for 15 min at 4° C. The upper aqueous phase was transferred in a new ice-cold tube and diluted with 500 μl of ice-cold isopropyl alcohol and incubate at RT for 10 min. Tubes were centrifuged at 12000 g for 10 min at 4° C. The RNA pellet was washed twice using ice-cold 75% ethanol and centrifugation for 5 min at 7500 g at 4° C. The RNA pellet was dissolved in RNase-free H2O and the concentration was measured using Nanodrop 2000 (Thermo Fisher Scientific). […] The RNA sample (1 μg) was subjected to reverse transcription with the iScript cDNA synthesis kit. The TaqMan gene expression assays-on-demand system (Applied Biosystems, Foster City, CA, USA) was used for gene expression assessment by quantitative PCR (qPCR) using GAPDH as housekeeping gene using the comparative Ct method.

[3] = test system: liver gene expression; assay: RNA-Sequencing of livers with IPA pathway analysis; type: in vivo, mice
Protocol: Bioinformatics and Biostatistics Analyses on RNA Sequencing Data Transcriptome sequencing was performed on mice samples from each group with four replicates per condition. Quality control was first performed on the raw sequencing data by tool FastQC. Then low-quality reads and adapter sequences were trimmed out by tool Trimmomatic. After pre-processing, the surviving reads were aligned into mouse reference genome mm10 by STAR aligner. Gene counts per gene per sample were quantified by function—quantMode GeneCounts supported by the STAR aligner. Gene expression normalization was performed by R package DEseq2.
Given the gene expression profile, differential expression analyses were performed based on gene counts by DEseq2 package. Five pairwise comparisons were analyzed: LFD+Veh vs LFD+11D3, HFD+Veh vs HFD+11D3, HFD+Veh vs HFD+11U3, HFD+Veh vs HFD+11U3-2M and LFD+Veh vs HFD+Veh. Differentially expressed genes (DEGs) were defined by FDR=5% and absolute fold-change equal to or greater than 1.5. For the downstream analysis, Ingenuity Pathways Analysis (IPA) was employed to perform pathway enrichment analysis on the DEGs. Significant pathways were defined by FDR=5%. Regulation directions were measured by Z-scores, where a positive Z-score indicates activation of the pathway and a negative Z-score means inhibition, while some pathways show out unknown or mix of regulation directions.

## CCCc1ccc(CCCCCCCCCC(C)(C)C(=O)O)o1 [11U3-2M, 2,2-Dimethyl-11-(5-propylfuran-2-yl)undecanoic acid]
[1]; 50 mg/kg
  lower insulin plasma level compared to veh (ELISA): 68%
  plasma level of AST: significant reduction
  plasma level of TNF-α: significant reduction
[1]; 50 mg/kg, milliplex
  lower plasma C-peptide 2 compared to veh: 43%
  lower plasma gastric inhibitory polypeptide (GIP) compared to veh: 36%
[1]; FIG. 3D legend
  liver enzyme ALT: improving liver enzymes (AST and ALT)
[2]
  LncRNA GM10804 decreased: 3.3 fold
  LncRNA GM15441 increased: 320 fold
  PDK4 increase: 9.3 fold
[3]; liver RNA-Seq DEGs vs HFD+veh
  activated pathways (Ingenuity Pathway Analysis): FA β-oxidation was the most activated pathway
[3]; liver RNA-Seq vs HFD+veh
  LncRNA GM10804 downregulated: 5 fold
  LncRNA GM15441 increased: 137 fold
  increase in PDK4 gene: 7 fold
